In US20120142682A1, “ANT[…] INHIBITING BACTERIAL MONO-ADP-RIBOSYLT[…]” (UNIVERSITY OF GUELPH, priority 2010, published 2012):
Read-outs that look alike come from different tables or passages of the source.

Assays:
[1] = system: Saccharomyces cerevisiae cells expressing the catalytic domain of P. aeruginosa ExoA (ExoAc); test: Yeast-based compound screen; assay type: cell-based; conditions: compound 50 μM; for Protection in Yeast: w303 strain, growth restored
cholix toxin = cholix toxin (Vibrio cholerae, UniProt Q5EK40); test: biochemical; assay type: biochemical
[2] = system: ExoA intoxicated C38 cells; assay type: cell-based, Human
WT ExoAc = WT ExoAc (Pseudomonas aeruginosa, UniProt P11439); test: biochemical; assay type: binding, P. aeruginosa
[3] = system: C38 cells in the presence of 650 ng/mL of ExoA; test: Determination of half-maximal effective concentration (EC50) in C38 cells; assay type: cell-based, Human; conditions: 96 h
Protocol: Cell viability was determined using the same method as the cytoprotection assay. The EC50 values were extrapolated from each corresponding line-of-best-fit (Sigmoidal function in Origin 6.1), and the average values reported±the standard deviation.

[4] = read-out: Kd, second (lower affinity) binding constant (converted)
[5] = 650 ng/ml ExoA (10-times LD50), NAP and V30 with 0.5% DMSO

WT ExoAc, sequence (P11439 430-638 limits assumed): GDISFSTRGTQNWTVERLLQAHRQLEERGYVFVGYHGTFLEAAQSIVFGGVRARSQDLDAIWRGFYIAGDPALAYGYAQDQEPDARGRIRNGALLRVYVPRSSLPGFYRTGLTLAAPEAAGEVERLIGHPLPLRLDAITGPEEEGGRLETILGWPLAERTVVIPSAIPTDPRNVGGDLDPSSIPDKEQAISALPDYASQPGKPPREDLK
cholix toxin, sequence (Q5EK40 33-666 limits assumed): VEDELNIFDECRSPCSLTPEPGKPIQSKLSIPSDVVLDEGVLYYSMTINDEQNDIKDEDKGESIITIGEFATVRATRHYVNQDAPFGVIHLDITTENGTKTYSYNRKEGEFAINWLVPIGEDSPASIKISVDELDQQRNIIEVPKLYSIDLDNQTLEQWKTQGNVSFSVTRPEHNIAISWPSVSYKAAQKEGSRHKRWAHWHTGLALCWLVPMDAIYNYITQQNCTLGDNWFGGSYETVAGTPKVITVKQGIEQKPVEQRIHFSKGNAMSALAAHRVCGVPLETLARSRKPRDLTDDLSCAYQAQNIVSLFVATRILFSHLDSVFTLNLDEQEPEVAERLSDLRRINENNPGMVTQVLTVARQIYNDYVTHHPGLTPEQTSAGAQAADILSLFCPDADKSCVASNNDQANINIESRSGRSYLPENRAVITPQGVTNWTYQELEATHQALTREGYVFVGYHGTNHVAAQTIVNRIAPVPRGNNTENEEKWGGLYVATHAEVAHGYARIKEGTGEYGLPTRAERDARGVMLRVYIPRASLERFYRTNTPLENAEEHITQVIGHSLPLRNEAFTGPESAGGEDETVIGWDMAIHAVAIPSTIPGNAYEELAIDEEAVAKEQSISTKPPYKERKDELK

Structure (SMILES)	Protection in Yeast [1]	protection of C38 cells against ExoA (in words) [2]	other results
Nc1ccc2c3c(cccc13)C(=O)NC2=O [Compound 4-NAP, reference compound]	++ (25-50% (++))		
O=C1NN=C(CN2CCOCC2)c2c[nH]c3cccc1c23 [Compound P1]	− (Compounds showing less than 5% growth were scored (−))		Ki (cholix toxin; read-out: Ki): 22 ± 4 nM; protection of C38 cells from lethal action of high dose ExoA (morphology) [2]: completely protected; difference in affinity between the two binding sites (WT ExoAc): ~50 fold; Kd (WT ExoAc; read-out: Kd): 10 nM; Kd (WT ExoAc; [4]): 650 nM; EC50 [3, 5]: 2900 ± 800 nM
CN(C)Cc1nc2cccc3c2n1CCNC3=O [Compound P4]	− (Compounds showing less than 5% growth were scored (−))		IC50 (cholix toxin; read-out: IC50): 960 nM; Ki (cholix toxin; read-out: Ki): 132 ± 7 nM; Kd (WT ExoAc; read-out: Kd): 1380 ± 30 nM; EC50 [3, 5]: 12600 ± 3300 nM
O=C1NCCn2c(CCc3ccc(CN4CCCC4)cc3)nc3cccc1c32 [Compound P5]	− (Compounds showing less than 5% growth were scored (−))		IC50 (cholix toxin; read-out: IC50): 4460 nM; Ki (cholix toxin; read-out: Ki): 582 ± 124 nM; Kd (WT ExoAc; read-out: Kd): 750 ± 10 nM; EC50 [3, 5]: 16700 ± 1900 nM
O=C1NCC2c3cc(S(=O)(=O)O)ccc3Oc3cccc1c32 (stereo not shown) [Compound P8]	− (Compounds showing less than 5% growth were scored (−))	modest	IC50 (cholix toxin; read-out: IC50): 1040 ± 136 nM; Ki (cholix toxin; read-out: Ki): 136 ± 3 nM; difference in affinity between the two binding sites (WT ExoAc): ~50 fold; Kd (WT ExoAc; read-out: Kd): 160 nM; Kd (WT ExoAc; [4]): 5210 nM
O=c1cc(NCCNc2cc(=O)oc3ccccc23)c2ccccc2o1 [Compound V1]	− (Compounds showing less than 5% growth were scored (−))		
CN1CCN(c2c(N)c(=O)oc3ccccc23)CC1 [Compound V2]	− (Compounds showing less than 5% growth were scored (−))		
CCN(CC)CCn1c(NCc2nc3ccccc3n2Cc2ccccc2)nc2ccccc21 [Compound V3]	− (Compounds showing less than 5% growth were scored (−))		
O=C(NCCNc1ccnc2cc(Cl)ccc12)c1ccccc1F [Compound V4]	− (Compounds showing less than 5% growth were scored (−))		
O=C(CCCC(=O)Nc1ccc(F)c(Cl)c1)Nc1ccc(F)c(Cl)c1 [Compound V5]	toxic (any compound that reduced cell viability to less than 30%)		
Nc1c(C(=O)Nc2ccc(S(N)(=O)=O)cc2)sc2nc3c(cc12)CCCC3 [Compound V6]	− (Compounds showing less than 5% growth were scored (−))		
O=C(Nc1c2ccccc2nc2ccccc12)c1ccc([N+](=O)[O-])cc1 [Compound V7]	toxic (any compound that reduced cell viability to less than 30%)		
COc1ccc(Nc2nc(N3CCN(CCO)CC3)nc3ccccc23)c(OC)c1 [Compound V8]	− (Compounds showing less than 5% growth were scored (−))		
Nc1c(NCCCN2CCOCC2)c2ccccc2oc1=O [Compound V9]	− (Compounds showing less than 5% growth were scored (−))	moderate activity	
Cc1cccc(Cn2c(N3CCCCC3C)nc3c2c(=O)[nH]c(=O)n3C)c1 (stereo not shown) [Compound V10]	− (Compounds showing less than 5% growth were scored (−))	Weak protection	
CC1(C)C(=O)N(CC(O)Cn2cnc3ccccc32)C(=O)N1CN1C(=O)N(CC(O)Cn2cnc3ccccc32)C(=O)C1(C)C (stereo not shown) [Compound V11]	− (Compounds showing less than 5% growth were scored (−))	Weak protection	
Cn1c(=O)c2[nH]c(CN3CCc4ccccc4C3)nc2n(C)c1=O [Compound V12]	− (Compounds showing less than 5% growth were scored (−))	moderate activity	LD50 of ExoA in the presence of compound [2]: 228 ± 12 ng/mL; increase of the LD50 of ExoA [2]: ~3 fold
O=C(C1CCCN(Cc2c[nH]c3ccccc23)C1)N1CCCCCC1 (stereo not shown) [Compound V13]	− (Compounds showing less than 5% growth were scored (−))		
Cc1[nH]c2ccccc2c1CN1CCN(c2ccccn2)CC1 [Compound V14]	− (Compounds showing less than 5% growth were scored (−))		
CCn1c(SCc2nc3ccccc3c(=O)[nH]2)nnc1-c1ccc(Cl)cc1 [Compound V15]	+ (5-25% (+))	moderate activity	LD50 of ExoA in the presence of compound [2]: 208 ± 41 ng/mL; protection in yeast against ExoAc (in words) [1]: weak protection

Structure (SMILES)	Protection in Yeast [1]	protection of C38 cells against ExoA (in words) [2]	other results
Cc1cc(Nc2ccc(O)cc2)c2ccccc2n1.Cl [Compound V16]	− (Compounds showing less than 5% growth were scored (−))	Weak protection	
Cn1c(=O)c2[nH]c(CNCc3ccccc3Cl)nc2n(C)c1=O [Compound V17]	− (Compounds showing less than 5% growth were scored (−))	moderate activity	
COc1ccc(NC(=O)CC2C(=O)N(c3ccc(Cl)cc3)C(=S)N2CCc2ccncc2)cc1 (stereo not shown) [Compound V18]	− (Compounds showing less than 5% growth were scored (−))		
Cn1c(=O)[nH]c(=O)c2c1nc(N1CCCCC1)n2CCCSc1nc2ccccc2s1 [Compound V19]	− (Compounds showing less than 5% growth were scored (−))		
O=C(CC1C(=O)NCCN1C(=O)CN1CCN(CCO)CC1)Nc1ccccc1 (stereo not shown) [Compound V20]	− (Compounds showing less than 5% growth were scored (−))		
COC(=O)c1[nH]c(C)c(C(=O)C2=C(O)C(=O)N(CCCN3CCOCC3)C2c2ccccn2)c1C (stereo not shown) [Compound V21]	− (Compounds showing less than 5% growth were scored (−))	Weak protection	
CN(C)CCNc1c(N)c(=O)oc2ccccc12 [Compound V22]	− (Compounds showing less than 5% growth were scored (−))	Weak protection	
CN1CCN(CCCNc2c(N)c(=O)oc3ccccc23)CC1 [Compound V23]	++ (25-50% (++))	moderate activity	LD50 of ExoA in the presence of compound [2]: 199 ± 30 ng/mL; protection in yeast against ExoAc (in words) [1]: modest protection
CCN(CC)CCn1c(NCc2ccc(F)cc2)nc2ccccc21.Cl.Cl [Compound V24]	− (Compounds showing less than 5% growth were scored (−))	moderate activity	LD50 of ExoA in the presence of compound [2]: 238 ± 16 ng/mL
CCOC(=O)c1[nH]c(C)c(C(=O)C2=C(O)C(=O)N(CCCN3CCOCC3)C2c2cccc(F)c2)c1C (stereo not shown) [Compound V25]	− (Compounds showing less than 5% growth were scored (−))	Weak protection	
Brc1cccc(CNc2nc3ccccc3n2CCN2CCOCC2)c1 [Compound V26]	− (Compounds showing less than 5% growth were scored (−))	Weak protection	
CCc1ccc2ncc(C(=O)O)c(O)c2c1 [Compound V27]	− (Compounds showing less than 5% growth were scored (−))		
CCOC(=O)c1cnc2ccc(OCC)cc2c1Nc1ccc(C)cc1C [Compound V28]	toxic (any compound that reduced cell viability to less than 30%)		
CC1CCCCN1c1nc2c(c(=O)[nH]c(=O)n2C)n1Cc1ccccc1 (stereo not shown) [Compound V29]	+ (5-25% (+))	Weak protection	protection in yeast against ExoAc (in words) [1]: weak protection
CC1=C(C)C2C(=O)CC(SCC(=O)NCCO)=CC2S1 (stereo not shown) [Compound V30]	− (Compounds showing less than 5% growth were scored (−))	excellent protection	IC50 (cholix toxin): 2810 nM; Ki (cholix toxin): 367 ± 3 nM; protection of C38 cells from lethal action of high dose ExoA (morphology) [2]: completely protected; Kd (WT ExoAc): 931 ± 74 nM; EC50 ([3]; Homo sapiens): 8800 ± 500 nM
CC(=O)Nc1c(Nc2ccccc2)c2ccccc2oc1=O [Compound V31]	+ (5-25% (+))	Weak protection	protection in yeast against ExoAc (in words) [1]: weak protection
O=C1NC(=O)c2cccc3cccc1c23 [NAP, 1,8-naphthalimide, reference compound]	++++ (Compounds found to restore growth to 50-75% (++++))	excellent protection	Kd (WT ExoAc): 950 ± 30 nM; EC50 ([3]; Homo sapiens): 3800 ± 900 nM
CN(C)CC(=O)Nc1ccc2[nH]c(=O)c3ccccc3c2c1.Cl [PJ34, N-(6-oxo-5,6-dihydrophenanthridin-2-yl)-(N,N-dimethylamino)acetamide hydrochloride, reference compound]	− (Compounds showing less than 5% growth were scored (−))		IC50 (cholix toxin): 280 ± 70 nM; Ki (cholix toxin): 37 ± 9 nM; Kd (WT ExoAc): 820 ± 54 nM
O=c1[nH]c2ccccc2c2ccccc12 [PJ97A, reference compound]		strong protection	IC50 (cholix toxin; read-out: IC50): 4670 ± 175 nM; Ki (cholix toxin; read-out: Ki): 610 ± 175 nM; LD50 of ExoA in the presence of compound [2]: > 750 ng/mL; increase of the LD50 of ExoA [2]: ~12 fold; Kd (WT ExoAc; read-out: Kd): 393 ± 64 nM
